Assay results from patent US9102648B1, “Bioavailable diacylhydrazine ligands for modulating the expression of exogenous genes via an ecdysone receptor complex” (Intrexon Corporation, priority 2003, dated 2015).
Where two headings read alike, the source gives them in different places.

What was measured:
[1] = target: T1, Bombyx mori EcR (VP16 fusion, CVBE switch construct) (Bombyx mori, UniProt P49881); assay: Z3 Assay (HEK-293 cells with CVBE and 6XEcRE LacZ, β-galactosidase reporter); conditions: for Fold Induction, Z3 Assay, 3.3 uM: 3.3 uM ligand; for Fold Induction, Z3 Assay, 3.3 uM / Fold Induction, Z3 Assay, 33 uM: ligand treated / DMSO treated cells; for Fold Induction, Z3 Assay, 3.3 uM / EC50 / Fold Induction, Z3 Assay, 33 uM: average of two wells; for Z3 assay Rel Max FI: maximum fold induction at any concentration relative to that of GS-E ligand; for Z3 assay Rel Max FI / EC50: HEK-293 Z3 cells; for EC50: read-out: Z3 assay EC50, β-galactosidase reporter; for Fold Induction, Z3 Assay, 33 uM: 33 uM ligand
T1 sequence (P49881 86-606): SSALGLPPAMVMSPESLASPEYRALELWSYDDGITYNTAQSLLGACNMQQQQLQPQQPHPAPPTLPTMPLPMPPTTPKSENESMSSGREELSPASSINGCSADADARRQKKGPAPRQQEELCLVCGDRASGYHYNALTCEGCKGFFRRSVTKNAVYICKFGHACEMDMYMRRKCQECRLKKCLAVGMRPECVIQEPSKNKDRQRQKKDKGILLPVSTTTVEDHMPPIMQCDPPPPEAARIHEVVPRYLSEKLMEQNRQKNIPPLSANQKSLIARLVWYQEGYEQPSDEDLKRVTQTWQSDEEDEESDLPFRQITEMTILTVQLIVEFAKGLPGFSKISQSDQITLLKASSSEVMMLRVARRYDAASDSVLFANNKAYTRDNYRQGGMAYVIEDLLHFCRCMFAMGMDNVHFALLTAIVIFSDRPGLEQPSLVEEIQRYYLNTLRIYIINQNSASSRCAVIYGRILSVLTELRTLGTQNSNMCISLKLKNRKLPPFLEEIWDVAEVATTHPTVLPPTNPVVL
T1 sequence (P19793 1-462 partner): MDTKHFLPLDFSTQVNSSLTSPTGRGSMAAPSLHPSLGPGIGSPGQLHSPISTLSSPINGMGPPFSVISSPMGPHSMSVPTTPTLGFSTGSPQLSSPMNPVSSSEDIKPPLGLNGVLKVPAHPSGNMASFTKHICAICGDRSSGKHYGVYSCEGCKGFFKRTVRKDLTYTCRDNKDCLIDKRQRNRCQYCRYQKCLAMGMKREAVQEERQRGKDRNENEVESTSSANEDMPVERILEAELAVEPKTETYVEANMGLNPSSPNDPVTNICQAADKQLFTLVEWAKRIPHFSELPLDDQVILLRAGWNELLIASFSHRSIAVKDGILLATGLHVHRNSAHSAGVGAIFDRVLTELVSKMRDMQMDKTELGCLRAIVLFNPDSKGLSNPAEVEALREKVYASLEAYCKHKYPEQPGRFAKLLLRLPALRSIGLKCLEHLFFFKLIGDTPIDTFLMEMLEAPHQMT
Excerpt: Dr. F. Gage provided a population of stably transformed cells containing CVBE and 6XEcRE as described in Suhr, S. T., Gil, E. B., Senut M. C., Gage, F. H. (1998) Proc. Natl. Acad. Sci. USA 95, 7999-804. Human 293 kidney cells, also referred to as HEK-293 cells, were sequentially infected with retroviral vectors encoding first the switch construct CVBE, and subsequently the reporter construct 6XEcRE Lac Z. The switch construct contained the coding sequence for amino acids 26-546 from Bombyx mori EcR (BE) (Iatrou) inserted in frame and downstream of the VP16 transactivation domain (VBE). A synthetic ATG start codon was placed under the control of cytomegalovirus (CVBE) immediate early promoter and flanked by long terminal repeats (LTR). The reporter construct contained six copies of the ecdysone response element (EcRE) binding site placed upstream of LacZ and flanked on both sides with LTR sequences (6XEcRE).
Dilution cloning was used to isolate individual clones. Clones were selected using 450 ug/mL G418 and 100 ng/mL puromycin. Individual clones were evaluated based on their response in the presence and absence of test ligands.
Human 293 kidney cells stably transformed with CVBE and 6XEcRE LacZ were maintained in Minimum Essential Medium (Mediates, 10-010-CV) containing 10% FBS (Life Technologies, 26140-087), […] G418 (Mediates, 30-234-CR), and […] (Sigma, P-7255), at 37° C. in an atmosphere containing 5% CO2 and were subculture when they reached 75% confluence.
Z3 cells were seeded into 96-well tissue culture plates at a concentration of 2.5×10^3 cells per well and incubated at 37° C. in 5% CO2 for twenty-four hours. Stock solutions of ligands were prepared in DMSO. Ligand stock solutions were diluted 100 fold in media and 50 μL of this diluted ligand solution ([…]) was added to cells. The final concentration of DMSO was maintained at 0.03% in both controls and treatments.
Reporter gene expression was evaluated 48 hours after treatment of cells, β-galactosidase activity was measured using Gal Screen™ bioluminescent reporter gene assay system from Tropix (GSY1000). Fold induction activities were calculated by dividing relative light units (“RLU”) in ligand treated cells with RLU in DMSO treated cells. Luminescence was detected at room temperature using a Dynex MLX microtiter plate luminometer.
Flanking both constructs are long terminal repeats, G418 and puromycin are selectable markers, CMV is the cytomegalovirus promoter, VBE is coding sequence for amino acids 26-546 from Bombyx mori EcR inserted downstream of the VP16 transactivation domain, 6×EcRE is six copies of the ecdysone response element, lacZ encodes for the reporter enzyme β-galactosidase.
(§1) Each assay was conducted in two separate wells, and the two values were averaged. Fold inductions were calculated by dividing relative light units (“RLU”) in ligand treated cells with RLU in DMSO treated cells. EC50s were calculated from dose response data using a three-parameter logistic model.

[2] = target: GAL4 DBD (1-147)-CfEcR(DEF)/VP16AD-βRXREF-LmUSPEF (Choristoneura fumiferana, UniProt O77240); assay: cell-based; conditions: for 27-63 assay Rel Max FI: maximum fold induction at any concentration relative to that of GS-E ligand, CHO 27-63 cells
Excerpt: GAL4 DBD (1-147)-CfEcR(DEF)/VP16AD-βRXREF-LmUSPEF:
The wild-type D, E, and F domains from spruce budworm Choristoneura fumiferana EcR (“CfEcR-DEF”; SEQ ID NO: 1) were fused to a GAL4 DNA binding domain (“Gal4DBD1-147”; SEQ ID NO: 2) and placed under the control of a phosphoglycerate kinase promoter (“PGK”; SEQ ID NO: 3). Helices 1 through 8 of the EF domains from Homo sapiens RXRβ (“HsRXRβ-EF”; nucleotides 1-465 of SEQ ID NO: 4) and helices 9 through 12 of the EF domains of Locusta migratoria Ultraspiracle Protein (“LmUSP-EF”; nucleotides 403-630 of SEQ ID NO: 5) were fused to the transactivation domain from VP16 (“VP16AD”; SEQ ID NO: 6) and placed under the control of an elongation factor-1α promoter (“EF-1α”; SEQ ID NO: 7). Five consensus GAL4 response element binding sites (“5XGAL4RE”; comprising 5 copies of a GAL4RE comprising SEQ ID NO: 8) were fused to a synthetic TATA minimal promoter (SEQ ID NO: 9) and placed upstream of the luciferase reporter gene (SEQ ID NO: 10).
CHO cells were transiently transfected with transcription cassettes for GAL4 DBD (1-147) CJEcR(DEF) and for VP16AD βRXREF-LmUSPEF controlled by ubiquitously active cellular promoters (PGK and EF-la, respectively) on a single plasmid. Stably transfected cells were selected by Zeocin resistance. Individually isolated CHO cell clones were transiently transfected with a GAL4 RE-luciferase reporter (pFR Luc). 27-63 clone was selected using Hygromycin.
Cells were trypsinized and diluted to a concentration of 2.5×10^4 cells mL. 100 μL of cell suspension was placed in each well of a 96 well plate and incubated at 37° C. under 5% CO2 for 24 h. Ligand stock solutions were prepared in DMSO and diluted 300 fold for all treatments. Dose response testing consisted of 8 concentrations ranging from […] to 0.01 μM.
Luciferase reporter gene expression was measured 48 h after cell treatment using Bright-Glo™ Luciferase Assay System from Promega (E2650). Luminescence was detected at room temperature using a Dynex MLX microtiter plate luminometer.
as §1

CCc1c(C(=O)NN(C(=O)c2ccc(C)cc2)C(C)(C)C)ccc2c1OCOC2 [RG-115611]
Fold Induction, Z3 Assay, 3.3 uM [1]: 745 | Z3 assay Rel Max FI [1]: 0.703 | EC50 [1]: 1580 nM

CC(C)(C)N(NC(=O)c1ccc2c(c1)OC(F)(F)O2)C(=O)c1ccccc1[N+](=O)[O-] [RG-115352]
Fold Induction, Z3 Assay, 3.3 uM [1]: 7 | Z3 assay Rel Max FI [1]: 0.265 | EC50 [1]: 45700 nM

CCc1ccc(C(=O)NN(C(=O)c2cc(C)cc(C)c2)C(c2ccccc2)C(C)(C)C)cc1 (centres unmarked) [RG-115846]
Fold Induction, 27-63 Assay, 3.3 uM ([2]; 3.3 uM ligand, RLU ligand treated / RLU DMSO treated cells, average of two wells): 1643 | Fold Induction, 27-63 Assay, 33 uM ([2]; 33 uM ligand, RLU ligand treated / RLU DMSO treated cells, average of two wells): 645 | 27-63 assay Rel Max FI [2]: 0.846 | EC50 ([2]; read-out: 27-63 assay EC50, CHO 27-63 stable cell line, luciferase reporter, average of two wells): 95 nM

CCCC(N(NC(=O)c1ccc2c(c1CC)OCCO2)C(=O)c1cc(C)cc(C)c1)C(C)(C)C (centres unmarked) [RG-115866, 3,5-Dimethyl-benzoic acid N-(1-tert-butyl-butyl)-N′-(5-ethyl-2,3-dihydro-benzo[1,4]dioxine-6-carbonyl)-hydrazide]
EC50 [2]: 10 nM | 27-63 assay Rel Max FI [2]: 0.999 | fold induction at 33 µM ([2]; read-out: Fold Induction, 27-63 Assay, 33 uM): 3

CCc1ccc(C(=O)NN(C(=O)c2cc(C)nc(Cl)c2)C(C)(C)C)c(F)c1 [RG-115112]
Fold Induction, Z3 Assay, 3.3 uM [1]: 618 | Z3 assay Rel Max FI [1]: 0.618 | EC50 [1]: 309 nM

COc1cc(C(=O)N(NC(=O)c2ccc3c(c2Cl)COCO3)C(C)(C)C)cc(OC)c1C [RG-115441]
Fold Induction, Z3 Assay, 3.3 uM [1]: 118 | Z3 assay Rel Max FI [1]: 0.759 | EC50 [1]: 126 nM

Cc1c(O)cccc1C(=O)NN(C(=O)c1cc(Cl)nc(Cl)c1)C(C)(C)C [RG-115261]
Fold Induction, Z3 Assay, 3.3 uM [1]: 31 | Z3 assay Rel Max FI [1]: 0.498 | EC50 [1]: 29500 nM

CCc1ccc(C(=O)NN(C(=O)c2cccc(OC)c2)C(C)(C)C)c(F)c1 [RG-115269]
Fold Induction, Z3 Assay, 3.3 uM [1]: 112 | Z3 assay Rel Max FI [1]: 0.552 | EC50 [1]: 437 nM

CCc1c(OC)cccc1C(=O)NN(C(=O)c1cc(C)n(-c2ccccc2)n1)C(C)(C)C [RG-115721]
Fold Induction, Z3 Assay, 33 uM [1]: 2

CCc1c(OC)cccc1C(=O)NN(C(=O)c1nn(C(c2ccccc2)(c2ccccc2)c2ccccc2)c2ccccc12)C(C)(C)C [RG-115722]
Fold Induction, Z3 Assay, 33 uM [1]: 1

COc1cc(C(=O)N(NC(=O)c2cccc(OC(C)=O)c2C)C(C)(C)C)cc(OC)c1C [RG-115557]
Fold Induction, Z3 Assay, 3.3 uM [1]: 426 | Z3 assay Rel Max FI [1]: 0.566 | EC50 [1]: 1700 nM

CCc1c(OC)cccc1C(=O)NN(C(=O)c1ccc(C(=O)OC)cn1)C(C)(C)C [RG-115717]
Fold Induction, Z3 Assay, 33 uM [1]: 9

CCc1ccc(C(=O)NN(C(=O)c2cc(F)ccc2[N+](=O)[O-])C(C)(C)C)c(F)c1 [RG-115086]
Fold Induction, Z3 Assay, 3.3 uM [1]: 433 | Z3 assay Rel Max FI [1]: 0.433 | EC50 [1]: 692 nM

COCc1c(OC)cccc1C(=O)NN(C(=O)c1cc(Cl)cc(Cl)c1)C(C)(C)C [RG-115306]
Fold Induction, Z3 Assay, 3.3 uM [1]: 5 | Z3 assay Rel Max FI [1]: 0.424 | EC50 [1]: 3470 nM

Cc1cc(C)cc(C(=O)N(NC(=O)c2ccc3cc[nH]c3c2)C(C)(C)C)c1 [RG-115689]
Fold Induction, Z3 Assay, 3.3 uM [1]: 13 | Z3 assay Rel Max FI [1]: 0.411 | EC50 [1]: 100000 nM

CCc1c(OC)cccc1C(=O)NN(C(=O)c1cc2ccccc2n1C)C(C)(C)C [RG-115106, N′-2-Ethyl-3-methoxybenzoyl-N-t-butyl-N-(N-methylindole-2-carbonyl) hydrazide]
Fold Induction, Z3 Assay, 3.3 uM [1]: 68 | Z3 assay Rel Max FI [1]: 0.457 | EC50 [1]: 2570 nM

CCc1ccc(C(=O)NN(C(=O)c2cc(Cl)nc(Cl)c2)C(C)(C)C)c(F)c1 [RG-115128]
Fold Induction, Z3 Assay, 3.3 uM [1]: 110 | Z3 assay Rel Max FI [1]: 0.538 | EC50 [1]: 245 nM

CCc1c(OC)cccc1C(=O)NN(C(=O)c1cccc2c1OCO2)C(C)(C)C [RG-115496]
Fold Induction, Z3 Assay, 3.3 uM [1]: 874 | Z3 assay Rel Max FI [1]: 0.878 | EC50 [1]: 1180 nM

CCc1ccc(C(=O)NN(C(=O)c2cccc([N+](=O)[O-])c2)C(C)(C)C)c(F)c1 [RG-115167]
Fold Induction, Z3 Assay, 3.3 uM [1]: 73 | Z3 assay Rel Max FI [1]: 0.533 | EC50 [1]: 240 nM

Cc1cc(C)cc(C(=O)N(NC(=O)c2ccc3c(c2)OC(F)(F)O3)C(C)(C)C)c1 [RG-115256]
Fold Induction, Z3 Assay, 3.3 uM [1]: 647 | Z3 assay Rel Max FI [1]: 0.527 | EC50 [1]: 692 nM

CCc1ccc(C(=O)NN(C(=O)c2ccccc2OC)C(C)(C)C)c(F)c1 [RG-115422]
Fold Induction, Z3 Assay, 3.3 uM [1]: 204 | Z3 assay Rel Max FI [1]: 0.769 | EC50 [1]: 398 nM

CCc1c(OC)cccc1C(=O)NN(C(=O)c1n[nH]c2ccccc12)C(C)(C)C [RG-115723, 1H-Indazole-3-carboxylic acid N-tert-butyl-N′-(2-ethyl-3-methoxy-benzoyl)-hydrazide]
fold induction at 33 µM ([1]; HEK293, read-out: Fold Induction, Z3 Assay, 33 uM): 17
